Data taken from patent US11780845B2 (Relay Therapeutics, Inc., priority 2019, dated 2023).
pIC50: −log10 of the molar value.

Legend:
FGFR2 = FGFR2 (Homo sapiens (Human), UniProt P21802); assay: FGFR2 Biochemical Caliper Assay
Description: Compounds of the present invention were also tested in a FGFR2 Biochemical Caliper Assay. Compounds were prepared in 10 mM DMSO solution and serially diluted into 11 concentrations by 3-fold dilution. […] 5 uL of ATP solution (100 uM) was added to start the reaction and the plate was incubated for 90 minutes, then 70 uL of stopping buffer (0.5M EDTA) was added to terminate the reaction. Each well was analyzed using EZ reader.

SNU16 cells = assay: SNU16 Cancer Cell Line Proliferation Assay; type: cell-based; details: Homo sapiens; SNU-16 cells
How it was run: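 SNU16 cells were seeded, held 24 h at 37 degrees, then dosed with an 11-point 3-fold dilution series prepared from a 10 mM DMSO stock. After 96 h incubation, viability was read by CellTiter Glo luminescence.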

FGFR2, sequence (P21802 22-821): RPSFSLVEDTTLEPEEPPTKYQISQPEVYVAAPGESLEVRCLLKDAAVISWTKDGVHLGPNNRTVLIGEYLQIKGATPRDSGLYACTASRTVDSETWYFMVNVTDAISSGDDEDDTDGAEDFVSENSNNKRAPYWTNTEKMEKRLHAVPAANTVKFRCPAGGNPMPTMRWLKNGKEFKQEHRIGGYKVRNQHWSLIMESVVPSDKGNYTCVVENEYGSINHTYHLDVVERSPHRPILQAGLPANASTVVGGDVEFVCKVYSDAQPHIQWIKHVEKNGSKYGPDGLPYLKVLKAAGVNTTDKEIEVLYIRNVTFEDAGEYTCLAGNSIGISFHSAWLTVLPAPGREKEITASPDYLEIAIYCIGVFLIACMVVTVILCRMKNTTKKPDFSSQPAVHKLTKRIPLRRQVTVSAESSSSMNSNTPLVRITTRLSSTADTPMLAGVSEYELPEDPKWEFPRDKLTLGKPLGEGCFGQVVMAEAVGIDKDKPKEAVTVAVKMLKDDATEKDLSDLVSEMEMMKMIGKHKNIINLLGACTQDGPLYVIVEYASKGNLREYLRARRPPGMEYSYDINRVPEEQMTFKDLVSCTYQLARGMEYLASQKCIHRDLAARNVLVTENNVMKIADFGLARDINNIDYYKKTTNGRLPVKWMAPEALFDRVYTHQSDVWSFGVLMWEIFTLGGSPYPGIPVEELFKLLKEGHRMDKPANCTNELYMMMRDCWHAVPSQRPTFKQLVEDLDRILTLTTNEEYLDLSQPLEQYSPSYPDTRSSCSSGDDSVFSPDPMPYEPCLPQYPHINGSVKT

| pIC50 (FGFR2) | pIC50 (SNU16 cells) | Compound |
| --- | --- | --- |
| 4.00 to 6.00 | 4.00 to 6.00 | C=CC(=O)N1CCC(c2c(-c3ccc(N(C)C(C)=O)cc3)c3c(N)ncnc3n2C)C1 (stereo not shown) [Example 720] |
| 6.00 to 6.60 | 6.00 to 6.60 | C=CC(=O)N1CCC(c2c(-c3ccc(COC)cc3)c3c(N)ncnc3n2C)C1 (stereo not shown) [Example 721] |
| 4.00 to 6.00 | 4.00 to 6.00 | C=CC(=O)N1CCC(c2c(-c3ccc(C(=O)N4CCOCC4)cc3)c3c(N)ncnc3n2C)C1 (stereo not shown) [Example 722] |
| 4.00 to 6.00 | 4.00 to 6.00 | C=CC(=O)N1CCC(c2c(-c3cnn(CC(F)(F)F)c3)c3c(N)ncnc3n2C)C1 (stereo not shown) [Example 723] |
| 4.00 to 6.00 | 4.00 to 6.00 | C=CC(=O)N1CCC(c2c(-c3ccc(CN4CC[C@@H](O)C4)cc3)c3c(N)ncnc3n2C)C1 (stereo partly shown) [Example 724] |
| > 7.00 | 6.60 to 7.00 | C=CC(=O)N1CCC(c2c(-c3ccc(C(=O)Nc4ccccn4)cc3)c3c(N)ncnc3n2C)C1 (stereo not shown) [Example 725] |
| 4.00 to 6.00 | 4.00 to 6.00 | C=CC(=O)N1CCC(c2c(-c3cnn(C4CCCC4)c3)c3c(N)ncnc3n2C)C1 (stereo not shown) [Example 726] |
| 4.00 to 6.00 | 4.00 to 6.00 | C=CC(=O)N1CCC(c2c(-c3ccc(C(=O)N4CCC4)c(F)c3)c3c(N)ncnc3n2C)C1 (stereo not shown) [Example 727] |
| 4.00 to 6.00 | 4.00 to 6.00 | C=CC(=O)N1CCC(c2c(-c3ccc(Oc4ncccn4)cc3)c3c(N)ncnc3n2CCN2CCOCC2)C1 (stereo not shown) [Example 728] |
| 6.60 to 7.00 | 6.60 to 7.00 | C=CC(=O)N1CCC(c2c(-c3ccc(COc4ccccc4)cc3)c3c(N)ncnc3n2C)C1 (stereo not shown) [Example 729] |
| 6.00 to 6.60 | 4.00 to 6.00 | C=CC(=O)N1CC[C@H](c2[nH]c3ncnc(N)c3c2-c2ccc(Oc3ncccn3)cc2)C1 [Example 730] |
| 6.00 to 6.60 | 6.00 to 6.60 | C=CC(=O)N1CCC(c2c(-c3ccc(C(=O)N4CCSC4)cc3)c3c(N)ncnc3n2C)C1 (stereo not shown) [Example 731] |
| 6.60 to 7.00 | 4.00 to 6.00 | C=CC(=O)N1CCC(c2c(-c3cnn(CC4CCNCC4)c3)c3c(N)ncnc3n2C)C1 (stereo not shown) [Example 732] |
| 6.00 to 6.60 | 6.00 to 6.60 | C=CC(=O)N1CCC(c2c(-c3ccc(OCC(F)(F)F)nc3)c3c(N)ncnc3n2C)C1 (stereo not shown) [Example 733] |
| 6.60 to 7.00 | ≥ 7.00 | C=CC(=O)N1CCC(c2c(-c3ccc(OCC4CC4)cc3)c3c(N)ncnc3n2C)C1 (stereo not shown) [Example 734] |
| 6.00 to 6.60 | 6.00 to 6.60 | C=CC(=O)N1CCC(c2c(-c3ccc(C(=O)N4CCCC4)cc3)c3c(N)ncnc3n2C)C1 (stereo not shown) [Example 735] |
| 4.00 to 6.00 | 4.00 to 6.00 | C=CC(=O)N1CCC(c2c(-c3cnn(C4CCOC4)c3)c3c(N)ncnc3n2C)C1 (stereo not shown) [Example 736] |
| 4.00 to 6.00 | 4.00 to 6.00 | C=CC(=O)N1CCC(c2c(-c3cnn(C(C)C)c3)c3c(N)ncnc3n2C)C1 (stereo not shown) [Example 737] |
| 4.00 to 6.00 | 4.00 to 6.00 | C=CC(=O)N1CCC(c2c(-c3ccc(Oc4ncccn4)cc3)c3c(N)ncnc3n2CCN2CCN(C)CC2)C1 (stereo not shown) [Example 738] |
| 6.60 to 7.00 | ≥ 7.00 | C=CC(=O)N1CCC(c2c(-c3ccc(Oc4ncc(Cl)cn4)cc3)c3c(N)ncnc3n2C)C1 (stereo not shown) [Example 739] |
| 4.00 to 6.00 | 4.00 to 6.00 | C=CC(=O)N1CC[C@@H](c2c(-c3ccc(Oc4ncccn4)cc3)c3c(N)ncnc3n2CCN2CCOCC2)C1 [Example 740] |

| pIC50 (FGFR2) | pIC50 (SNU16 cells) | Compound |
| --- | --- | --- |
| 4.00 to 6.00 | 4.00 to 6.00 | C=CC(=O)N1CC[C@H](c2c(-c3ccc(Oc4ncccn4)cc3)c3c(N)ncnc3n2CCN2CCOCC2)C1 [Example 741] |
| 4.00 to 6.00 | 4.00 to 6.00 | C=CC(=O)N1CCC(c2c(-c3cnn(C4CCNCC4)c3)c3c(N)ncnc3n2C)C1 (stereo not shown) [Example 742] |
| 6.00 to 6.60 | 4.00 to 6.00 | C=CC(=O)N1CCC(c2c(-c3cnn(C4CCN(C)CC4)c3)c3c(N)ncnc3n2C)C1 (stereo not shown) [Example 743] |
| > 7.00 | ≥ 7.00 | C=CC(=O)N1CCC(c2[nH]c3ncnc(N)c3c2-c2ccc(Oc3cccc(C)n3)cc2)C1 (stereo not shown) [Example 744] |
| 4.00 to 6.00 | 4.00 to 6.00 | C=CC(=O)N1CCC(c2c(-c3ccc(Oc4ccc(Cl)c(C)n4)cc3)c3c(N)ncnc3n2C)C1 (stereo not shown) [Example 745] |
| > 7.00 | 6.00 to 6.60 | C=CC(=O)N1CCC(c2[nH]c3ncnc(N)c3c2-c2ccc(C(=O)N3CCCC3)cc2)C1 (stereo not shown) [Example 746] |
| > 7.00 | ≥ 7.00 | CC#CC(=O)N1CCC(c2c(-c3ccc(C(=O)N4CCCC4)cc3)c3c(N)ncnc3n2C)C1 (stereo not shown) [Example 747] |
| 6.60 to 7.00 | 6.00 to 6.60 | C=CC(=O)N1CCC(c2c(-c3ccc(OCc4ccccc4)cc3)c3c(N)ncnc3n2C)C1 (stereo not shown) [Example 748] |
| > 7.00 | ≥ 7.00 | C=CC(=O)N1CCC(c2c(-c3ccc(SC4CCCC4)cc3)c3c(N)ncnc3n2C)C1 (stereo not shown) [Example 749] |
| > 7.00 | ≥ 7.00 | C=CC(=O)N1CCC(c2c(-c3ccc(C(=O)N4CCCCC4)cc3)c3c(N)ncnc3n2C)C1 (stereo not shown) [Example 750] |
| 6.00 to 6.60 | 6.60 to 7.00 | C=CC(=O)N1CCC(c2c(-c3ccc(C4CCOCC4)cc3)c3c(N)ncnc3n2C)C1 (stereo not shown) [Example 751] |
| 4.00 to 6.00 | 4.00 to 6.00 | C=CC(=O)N1CCC(c2c(-c3ccc(CN4CCC(C)(C)C4)cc3)c3c(N)ncnc3n2C)C1 (stereo not shown) [Example 753] |
| > 7.00 | 4.00 to 6.00 | C=CC(=O)N1CCC(c2c(-c3ccc(NC(=O)NC4CC4)cc3)c3c(N)ncnc3n2C)C1 (stereo not shown) [Example 755] |
| 6.60 to 7.00 | ≥ 7.00 | C=CC(=O)N1CCC(c2c(-c3ccc(OC4CC4)cc3)c3c(N)ncnc3n2C)C1 (stereo not shown) [Example 756] |
| 4.00 to 6.00 | 4.00 to 6.00 | C=CC(=O)N1CCC(c2c(-c3csc(CN4CCOCC4)c3)c3c(N)ncnc3n2C)C1 (stereo not shown) [Example 757] |
| > 7.00 | ≥ 7.00 | C=CC(=O)N1CCC(c2c(-c3ccc(OC4CCC4)cc3)c3c(N)ncnc3n2C)C1 (stereo not shown) [Example 758] |
| 6.00 to 6.60 | 6.00 to 6.60 | C=CC(=O)N1CCC(c2c(-c3ccc(Oc4ccc(C(F)(F)F)cn4)cc3)c3c(N)ncnc3n2C)C1 (stereo not shown) [Example 759] |
| > 7.00 | ≥ 7.00 | C=CC(=O)N1CCC(c2c(-c3ccc(C(=O)c4ccccc4)cc3)c3c(N)ncnc3n2C)C1 (stereo not shown) [Example 760] |
| 6.60 to 7.00 | 6.60 to 7.00 | C=CC(=O)N1CCC(c2c(-c3ccc(C(=O)C4CC4)cc3)c3c(N)ncnc3n2C)C1 (stereo not shown) [Example 761] |
| 4.00 to 6.00 | 4.00 to 6.00 | C=CC(=O)N1CCC(c2c(-c3ccc(C4CCC(=O)N4)cc3)c3c(N)ncnc3n2C)C1 (stereo not shown) [Example 762] |
| 6.00 to 6.60 | 6.00 to 6.60 | C=CC(=O)N1CCC(c2c(-c3ccc(CN4CCCC4)cc3)c3c(N)ncnc3n2C)C1 (stereo not shown) [Example 763] |

| pIC50 (FGFR2) | pIC50 (SNU16 cells) | Compound |
| --- | --- | --- |
| 4.00 to 6.00 | 4.00 to 6.00 | C=CC(=O)N1CCC(c2c(-c3ccc(CC(=O)N(C)C)cc3)c3c(N)ncnc3n2C)C1 (stereo not shown) [Example 764] |
| > 7.00 | 4.00 to 6.00 | C=CC(=O)N1CCC(c2c(-c3ccc(-c4ncc[nH]4)cc3)c3c(N)ncnc3n2C)C1 (stereo not shown) [Example 765] |
| 6.00 to 6.60 | 6.00 to 6.60 | C=CC(=O)N1CCC(c2c(-c3ccc(-c4cnn(C)c4)cc3)c3c(N)ncnc3n2C)C1 (stereo not shown) [Example 766] |
| 6.00 to 6.60 | 6.60 to 7.00 | C=CC(=O)N1CCC(c2c(-c3ccc(-c4noc(C)n4)cc3)c3c(N)ncnc3n2C)C1 (stereo not shown) [Example 767] |
| 6.00 to 6.60 | 6.60 to 7.00 | C=CC(=O)N1CCC(c2c(-c3ccc(-c4ccno4)cc3)c3c(N)ncnc3n2C)C1 (stereo not shown) [Example 768] |
| > 7.00 | ≥ 7.00 | C=CC(=O)Nc1ccc(-c2[nH]c3ncnc(N)c3c2-c2ccc(Oc3cccc(C)n3)cc2)cc1 [Example 769] |
| 4.00 to 6.00 | 4.00 to 6.00 | C=CC(=O)N1CCC(c2c(-c3ccc(NC4CCCC4)cc3)c3c(N)ncnc3n2C)C1 (stereo not shown) [Example 771] |
| > 7.00 | ≥ 7.00 | C=CC(=O)N1CCC(c2c(-c3ccc(Cn4cccn4)cc3)c3c(N)ncnc3n2C)C1 (stereo not shown) [Example 772] |
| 4.00 to 6.00 | 4.00 to 6.00 | C=CC(=O)N1CCC(c2c(-c3ccc(NC4CCOCC4)cc3)c3c(N)ncnc3n2C)C1 (stereo not shown) [Example 773] |
| 4.00 to 6.00 | 4.00 to 6.00 | CC#CC(=O)N1CCC(c2[nH]c3ncnc(N)c3c2-c2ccc(C(=O)N3CCCC3)cc2)C1 (stereo not shown) [Example 774] |
| 6.60 to 7.00 | 4.00 to 6.00 | C=CC(=O)N1CCC(c2[nH]c3ncnc(N)c3c2-c2ccc(Oc3ccc(C)cn3)cc2)C1 (stereo not shown) [Example 775] |
| > 7.00 | ≥ 7.00 | C=CC(=O)N1CCC(c2c(-c3ccc(Cn4ccc(C)n4)cc3)c3c(N)ncnc3n2C)C1 (stereo not shown) [Example 776] |
| 4.00 to 6.00 | 4.00 to 6.00 | C=CC(=O)N(C)c1ccc(-c2[nH]c3ncnc(N)c3c2-c2ccc(Oc3cccc(C)n3)cc2)cc1 [Example 777] |
| > 7.00 | ≥ 7.00 | C=CC(=O)N1CCC(c2c(-c3cnn(-c4cccnc4)c3)c3c(N)ncnc3n2C)C1 (stereo not shown) [Example 778] |
| 4.00 to 6.00 | 4.00 to 6.00 | C=CC(=O)N1CCC(c2c(-c3cnn(-c4ccccn4)c3)c3c(N)ncnc3n2C)C1 (stereo not shown) [Example 779] |
| 6.00 to 6.60 | 6.00 to 6.60 | C=CC(=O)N1CCC(c2c(-c3cnn(CC4CCN(C(C)=O)CC4)c3)c3c(N)ncnc3n2C)C1 (stereo not shown) [Example 780] |
| 4.00 to 6.00 | 4.00 to 6.00 | C=CC(=O)N1CCC(c2c(C3=CCC(CO)CC3)c3c(N)ncnc3n2C)C1 (stereo not shown) [Example 781] |
| 4.00 to 6.00 | 4.00 to 6.00 | C=CC(=O)N1CCC(c2c(-c3ccc(OC4CNC4)cc3)c3c(N)ncnc3n2C)C1 (stereo not shown) [Example 782] |
| 6.60 to 7.00 | 4.00 to 6.00 | C=CC(=O)N1CCC(c2c(C3=CCN(C(C)=O)CC3(C)C)c3c(N)ncnc3n2C)C1 (stereo not shown) [Example 783] |
| 4.00 to 6.00 | 4.00 to 6.00 | C=CC(=O)N1CCC(c2c(-c3ccc(C(=O)C4CCCC4)cc3)c3c(N)ncnc3n2C)C1 (stereo not shown) [Example 784] |
